System: B16-F10 tumours
Test: PET/CT imaging of B16-F10 tumour-bearing mice
Format: in vivo, C57BL/6J mice
Procedure: PET imaging experiments were conducted using a preclinical micro PET/CT scanner (Siemens inveon). For static PET scan, each tumour bearing mouse was injected with 4-6 MBq of ^68Ga-labeled CCZ01099 via tail vein under anesthesia. After the injection, mice were allowed to recover and roam freely in their cages. At 1 or 2 h p.i., the mice were sedated again with 2% isoflurane inhalation and positioned in the scanner, and kept warm by a heating pad. A 10 min baseline CT scan using 60 kV X-rays at 500 μA was obtained for localization and attenuation correction after segmentation for reconstructing the PET images. A single 12 min static PET scan was acquired following the CT scan. The mice were euthanized using CO2 inhalation after imaging.

SMILES: CCCC[C@H](NC(=O)CN1CCC(NC(=O)CN2CCN(CC(=O)O)CCN(CC(=O)O)CCN(CC(=O)O)CC2)CC1)C(=O)N[C@H]1CC(=O)NCCCC[C@@H](C(N)=O)N(C)C(=O)[C@H](Cc2c[nH]c3ccccc23)N(C)C(=O)[C@H](CCCNC(=N)N)N(C)C(=O)[C@@H](Cc2ccccc2)NC(=O)[C@H](Cc2c[nH]cn2)N(C)C1=O [^68Ga-labeled CCZ01099, metal not drawn]
- Tumour visualization on PET images (1 h and 2 h p.i.): Tumours were clearly visualized
- Tumour uptake on PET with co-injection of MC1R-specific inhibitor BMS 470539 (1 h p.i., 0.5 mg BMS 470539): tumour uptake was abolished

Reference: patent publication US11395857B2, “Radiolabeled melanocortin 1 receptor-specific alpha-melanocyte-stimulating hormone analogues for imaging or therapy” (PROVINCIAL HEALTH SERVICES AUTHORITY, priority 2018, dated 2022)
